Reference: ChEMBL document CHEMBL1629464, “Aldehyde oxidase: an enzyme of emerging importance in drug discovery” (J Med Chem, 2010)

Assays:
[1] = molecular target: T1, Aldehyde oxidase 1 (Mus musculus, UniProt O54754); test: Inhibition of mouse aldehyde oxidase
T1 sequence (O54754 whole entry): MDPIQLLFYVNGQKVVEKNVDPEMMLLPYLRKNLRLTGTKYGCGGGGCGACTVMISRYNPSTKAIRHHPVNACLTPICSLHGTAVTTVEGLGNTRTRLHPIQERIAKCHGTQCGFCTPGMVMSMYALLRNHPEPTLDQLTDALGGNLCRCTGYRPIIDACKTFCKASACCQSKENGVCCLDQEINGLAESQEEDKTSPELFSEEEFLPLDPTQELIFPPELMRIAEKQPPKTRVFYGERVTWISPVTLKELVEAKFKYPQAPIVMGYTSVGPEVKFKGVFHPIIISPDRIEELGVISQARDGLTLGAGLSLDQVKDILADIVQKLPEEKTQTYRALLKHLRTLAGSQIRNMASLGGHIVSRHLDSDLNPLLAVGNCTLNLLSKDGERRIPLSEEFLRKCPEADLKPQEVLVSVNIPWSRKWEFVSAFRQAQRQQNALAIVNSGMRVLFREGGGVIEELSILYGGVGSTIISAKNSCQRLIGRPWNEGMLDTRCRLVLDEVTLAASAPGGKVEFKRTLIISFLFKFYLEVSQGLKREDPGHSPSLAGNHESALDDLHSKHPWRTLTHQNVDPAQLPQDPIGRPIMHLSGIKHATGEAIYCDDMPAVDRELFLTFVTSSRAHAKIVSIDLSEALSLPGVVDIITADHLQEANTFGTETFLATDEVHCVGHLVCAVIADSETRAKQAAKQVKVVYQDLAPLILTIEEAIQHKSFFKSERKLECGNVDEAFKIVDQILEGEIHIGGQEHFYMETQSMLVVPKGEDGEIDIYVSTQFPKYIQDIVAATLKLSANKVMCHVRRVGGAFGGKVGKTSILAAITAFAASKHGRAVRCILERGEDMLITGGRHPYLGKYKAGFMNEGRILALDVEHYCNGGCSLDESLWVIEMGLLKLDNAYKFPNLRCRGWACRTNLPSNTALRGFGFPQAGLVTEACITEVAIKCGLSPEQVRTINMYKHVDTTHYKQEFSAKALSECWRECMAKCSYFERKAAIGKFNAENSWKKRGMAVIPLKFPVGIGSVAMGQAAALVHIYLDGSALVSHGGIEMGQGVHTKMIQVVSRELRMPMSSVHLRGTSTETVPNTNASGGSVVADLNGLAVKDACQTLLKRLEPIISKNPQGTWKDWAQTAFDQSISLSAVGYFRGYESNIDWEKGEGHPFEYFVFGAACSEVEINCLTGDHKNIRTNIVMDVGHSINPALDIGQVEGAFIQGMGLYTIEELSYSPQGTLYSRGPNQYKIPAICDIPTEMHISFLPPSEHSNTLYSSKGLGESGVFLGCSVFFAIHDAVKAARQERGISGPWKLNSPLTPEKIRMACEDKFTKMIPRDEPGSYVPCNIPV

[2] = molecular target: T2, Aldehyde oxidase 1 (Macaca fascicularis, UniProt Q5FB27); test: Inhibition of monkey aldehyde oxidase
T2 sequence (Q5FB27 whole entry): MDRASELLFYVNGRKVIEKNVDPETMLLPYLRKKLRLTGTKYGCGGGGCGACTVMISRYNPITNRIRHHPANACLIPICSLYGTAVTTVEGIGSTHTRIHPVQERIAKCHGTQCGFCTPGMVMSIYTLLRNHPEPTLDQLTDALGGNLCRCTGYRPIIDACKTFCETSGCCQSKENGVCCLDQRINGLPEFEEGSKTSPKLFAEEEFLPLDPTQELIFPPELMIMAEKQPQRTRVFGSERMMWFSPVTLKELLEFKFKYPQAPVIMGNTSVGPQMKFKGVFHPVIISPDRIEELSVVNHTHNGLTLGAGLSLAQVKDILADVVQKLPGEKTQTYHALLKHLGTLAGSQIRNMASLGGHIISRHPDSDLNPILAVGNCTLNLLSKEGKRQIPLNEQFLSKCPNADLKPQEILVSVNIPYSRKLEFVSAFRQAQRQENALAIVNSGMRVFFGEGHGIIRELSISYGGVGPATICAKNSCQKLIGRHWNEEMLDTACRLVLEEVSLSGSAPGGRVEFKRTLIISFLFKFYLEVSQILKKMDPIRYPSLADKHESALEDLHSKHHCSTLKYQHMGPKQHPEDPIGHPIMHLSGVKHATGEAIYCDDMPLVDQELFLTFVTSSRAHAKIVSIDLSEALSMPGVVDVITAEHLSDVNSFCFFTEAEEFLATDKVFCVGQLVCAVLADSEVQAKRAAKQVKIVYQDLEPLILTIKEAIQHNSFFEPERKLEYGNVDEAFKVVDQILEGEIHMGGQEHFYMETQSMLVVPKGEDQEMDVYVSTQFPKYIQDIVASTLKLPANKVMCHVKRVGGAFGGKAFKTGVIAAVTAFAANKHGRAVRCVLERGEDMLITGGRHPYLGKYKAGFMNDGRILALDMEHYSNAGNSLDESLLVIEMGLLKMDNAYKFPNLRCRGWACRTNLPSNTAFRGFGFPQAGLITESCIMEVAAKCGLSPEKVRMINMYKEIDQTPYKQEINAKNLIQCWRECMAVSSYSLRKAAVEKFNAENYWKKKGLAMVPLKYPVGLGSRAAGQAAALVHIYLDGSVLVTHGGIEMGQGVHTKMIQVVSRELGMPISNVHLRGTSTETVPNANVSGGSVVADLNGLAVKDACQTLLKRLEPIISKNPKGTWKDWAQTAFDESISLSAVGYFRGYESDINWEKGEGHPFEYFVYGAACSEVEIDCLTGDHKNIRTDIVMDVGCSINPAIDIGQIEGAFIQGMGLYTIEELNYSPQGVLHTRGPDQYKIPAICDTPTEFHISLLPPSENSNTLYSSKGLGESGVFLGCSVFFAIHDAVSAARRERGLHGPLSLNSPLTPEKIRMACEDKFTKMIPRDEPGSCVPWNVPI

| IC50 [1] | Structure (SMILES) | IC50 [2] |
| --- | --- | --- |
| 6.1 µM | OCCN1CCN(CCCN2c3ccccc3Sc3ccc(Cl)cc32)CC1 [PERPHENAZINE] | 3.6 µM |
|  | C[C@]12CC[C@@H]3c4ccc(O)cc4CC[C@H]3[C@@H]1CC[C@@H]2O [ESTRADIOL] | 12 µM |
